In patent US6949566B2, “Thiazole and oxazole derivatives” (Shionogi & Co. Ltd., priority 2000, dated 2005):

Target: T1, MMP-8 (Homo sapiens, UniProt P22894)
T1 construct: catalytic domain (^99Phe˜^262Gly) was amplified with PCR; His-tag; enterokinase digestion-site; made in house; host or cells: Escherichia coli
Test: Assay for inhibitory activities on MMPs (fluorogenic peptide substrate), MMP-8
Assay type: biochemical
Conditions: catalytic domain 99Phe-262Gly; substrate MOCAc-Pro-Leu-Gly-Leu-A2Pr(DNP)-Ala-Arg-NH2
Description: In regard to MMP-8, catalytic domain (^99Phe˜^262Gly) was amplified with PCR using commercial available Human Bone Marrow cDNA. This was cloned in Escherichia. coli expression vector pTrc99AHE inserted with His-tag sequence and enterokinase digestion-site, induced and expressed by IPTG (Isopropyl-β-D-thiogalactopyranoside) and expressed in a insoluble fraction (Thau F. Ho, M. Walid Qoronfleh, Robert C. Wahl, Trica A. Pulvino, Karen J. Vavra, Joe Falvo, Tracey M. Banks, Patricia G. Brake and Richard B. Ciccarelli: Gene expression, purification and characterization of recombinant human neutrophil collagenase. Gene 146, (1994) 297-301, Prepared by the a improved method of this material). Isolation of MMP-8 from an insoluble fraction was carried out by dissolving in modifier (6M urea) by a usual method and purification with metal chelate chromatography. And then removing modifier (6M urea) with dialysis and refolding of the enzyme spontaneously gave activated MMP-8.
(§1) The enzymatic activity on MMPs was analyzed by the method described in “C. Graham Knight, Frances Willenbrock and Gillian Murphy: A novel coumarin-labelled peptide for sensitive continuous assays of the matrix metalloproteinases: FEBS LETT., 296, (1992), 263-266”. The substrate MOCAc-Pro-Leu-Gly-Leu-A2Pr(DNP)-Ala-Arg-NH2 was purchased from Peptide Institute, Inc., Osaka, Japan. The measurement of the inhibitory activities (IC50) was carried out by the following four methods;
(§2) (A) Reaction with substrate, enzyme (MMPs) and inhibitor
(§3) (B) Reaction with substrate and inhibitor, without enzyme
(§4) (C) Reaction with substrate and enzyme (MMPs), without inhibitor
(§5) (D) Reaction with substrate only
(§6) IC50 values were calculated by using the following formula and each fluorescence values of above four methods (A to D). % inhibition={1−(A−B)/(C−D)}×100 IC50 means the concentration required to inhibit 50% of the enzyme activity.

T1 sequence (P22894 99-262): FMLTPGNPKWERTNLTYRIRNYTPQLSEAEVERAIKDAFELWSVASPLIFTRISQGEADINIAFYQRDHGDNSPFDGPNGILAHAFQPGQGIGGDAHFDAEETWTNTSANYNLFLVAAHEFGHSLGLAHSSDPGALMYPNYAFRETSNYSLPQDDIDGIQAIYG

IC50	SMILES
42.5 nM	C[C@H](NS(=O)(=O)c1ccc(-c2ncc(-c3ccc(Cl)cc3)s2)cc1)C(=O)O [Compound B-26]
453 nM	O=C(O)CNS(=O)(=O)c1ccc(-c2ncc(-c3ccc(Cl)cc3)s2)cc1 [Compound B-52]
66 nM	O=C(O)[C@@H](Cc1c[nH]c2ccccc12)NS(=O)(=O)c1ccc(-c2ncc(-c3ccc(Cl)cc3)s2)cc1 [Compound B-51]

Continued, compound first:

SMILES	IC50
CC(C)[C@H](NS(=O)(=O)c1ccc(-c2ncc(-c3ccccc3)o2)cc1)C(=O)O [Compound A-22]	53.3 nM
CSCC[C@@H](NS(=O)(=O)c1ccc(-c2ncc(-c3ccc(Cl)cc3)o2)cc1)C(=O)O [Compound A-36]	127 nM

Target: T2, MMP-13 (Homo sapiens, UniProt P45452)
T2 construct: catalytic domain (^104Tyr˜^267Gly) was amplified with RT-PCR; His-tag; enterokinase digestion-site; made in house; host or cells: Escherichia coli
Test: Assay for inhibitory activities on MMPs (fluorogenic peptide substrate), MMP-13
Assay type: biochemical
Conditions: catalytic domain 104Tyr-267Gly; substrate MOCAc-Pro-Leu-Gly-Leu-A2Pr(DNP)-Ala-Arg-NH2
Protocol: (§7) In regard to MMP-13, mRNA was prepared from carcinoma cell SW1353 derived from human cartilage stimulate by IL-1, TNF and catalytic domain (^104Tyr˜^267Gly) was amplified with RT-PCR. This was cloned in Escherichia. coli expression vector pTrc99AHE inserted with His-tag sequence and enterokinase digestion-site, induced and expressed by IPTG (Isopropyl-β-D-thiogalactopyranoside) and expressed in a insoluble fraction. Isolation of MMP-13 from an insoluble fraction was carried out by dissolving in modifier (6M urea) by a usual method and purification with metal chelate chromatography (Ni Chelateing Sepharose). And then removing modifier (6M urea) with dialyze and refolding of the enzyme spontaneously gave activated MMP-13.
as §1, §2, §3, §4, §5, §6

IC50	SMILES
14.1 nM	C[C@H](NS(=O)(=O)c1ccc(-c2ncc(-c3ccc(Cl)cc3)s2)cc1)C(=O)O [Compound B-26]
29.5 nM	O=C(O)CNS(=O)(=O)c1ccc(-c2ncc(-c3ccc(Cl)cc3)s2)cc1 [Compound B-52]
2.66 nM	O=C(O)[C@@H](Cc1c[nH]c2ccccc12)NS(=O)(=O)c1ccc(-c2ncc(-c3ccc(Cl)cc3)s2)cc1 [Compound B-51]

Second part, the compound before the results:

SMILES	IC50
CC(C)[C@H](NS(=O)(=O)c1ccc(-c2ncc(-c3ccccc3)o2)cc1)C(=O)O [Compound A-22]	5.31 nM
CSCC[C@@H](NS(=O)(=O)c1ccc(-c2ncc(-c3ccc(Cl)cc3)o2)cc1)C(=O)O [Compound A-36]	140 nM

Target: T3, MMP-2 (Homo sapiens, UniProt P08253)
T3 construct: purchased Calbiochem-Novabiochem International, Inc
T3 sequence (P08253 110-660): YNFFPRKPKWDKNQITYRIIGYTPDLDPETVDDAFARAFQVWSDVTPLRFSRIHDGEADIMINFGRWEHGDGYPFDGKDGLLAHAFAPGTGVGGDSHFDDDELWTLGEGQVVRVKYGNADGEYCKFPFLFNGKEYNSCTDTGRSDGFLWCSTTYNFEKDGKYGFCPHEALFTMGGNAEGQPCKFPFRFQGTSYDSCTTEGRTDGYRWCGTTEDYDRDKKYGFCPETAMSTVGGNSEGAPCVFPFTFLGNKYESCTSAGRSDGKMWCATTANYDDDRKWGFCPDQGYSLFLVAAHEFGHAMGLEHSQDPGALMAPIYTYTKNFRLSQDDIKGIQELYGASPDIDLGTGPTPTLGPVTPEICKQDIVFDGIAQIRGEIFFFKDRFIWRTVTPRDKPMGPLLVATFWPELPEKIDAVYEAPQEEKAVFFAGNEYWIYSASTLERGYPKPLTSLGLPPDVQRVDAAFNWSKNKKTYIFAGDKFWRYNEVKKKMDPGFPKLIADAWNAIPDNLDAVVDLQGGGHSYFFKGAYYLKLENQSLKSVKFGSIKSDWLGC
Test: Assay for inhibitory activities on MMPs (fluorogenic peptide substrate), MMP-2
Assay type: biochemical
Conditions: purchased MMP-2; substrate MOCAc-Pro-Leu-Gly-Leu-A2Pr(DNP)-Ala-Arg-NH2
Protocol: MMP-2 was purchased from Calbiochem-Novabiochem International, Inc.
as §1, §2, §3, §4, §5, §6

IC50	SMILES
8.3 nM	C[C@H](NS(=O)(=O)c1ccc(-c2ncc(-c3ccc(Cl)cc3)s2)cc1)C(=O)O [Compound B-26]
2.5 nM	O=C(O)CNS(=O)(=O)c1ccc(-c2ncc(-c3ccc(Cl)cc3)s2)cc1 [Compound B-52]
0.276 nM	O=C(O)[C@@H](Cc1c[nH]c2ccccc12)NS(=O)(=O)c1ccc(-c2ncc(-c3ccc(Cl)cc3)s2)cc1 [Compound B-51]

The remaining lines, values behind:

SMILES	IC50
CC(C)[C@H](NS(=O)(=O)c1ccc(-c2ncc(-c3ccccc3)o2)cc1)C(=O)O [Compound A-22]	7.84 nM
CSCC[C@@H](NS(=O)(=O)c1ccc(-c2ncc(-c3ccc(Cl)cc3)o2)cc1)C(=O)O [Compound A-36]	16.3 nM

Target: T4, MMP-12 (Homo sapiens, UniProt P39900)
T4 construct: catalytic domain(^100Phe˜^263Gly) was amplified with RT-PCR; His-tag; enterokinase digestion-site; made in house; host or cells: Escherichia coli
Test: Assay for inhibitory activities on MMPs (fluorogenic peptide substrate), MMP-12
Assay type: biochemical
Conditions: catalytic domain 100Phe-263Gly; substrate MOCAc-Pro-Leu-Gly-Leu-A2Pr(DNP)-Ala-Arg-NH2
Protocol: as §7, with “MMP-12,” for “MMP-13, mRNA was prepared from carcinoma cell SW1353 derived from human cartilage stimulate by IL-1, TNF and”, “domain(^100Phe˜^263Gly)” for “domain (^104Tyr˜^267Gly)”, “RT-PCR from Human Placenta Total RNA.” for “RT-PCR.”, “MMP-12” for “MMP-13”, “dialysis” for “dialyze”, “MMP-12.” for “MMP-13.”
as §1, §2, §3, §4, §5, §6

T4 sequence (P39900 100-263): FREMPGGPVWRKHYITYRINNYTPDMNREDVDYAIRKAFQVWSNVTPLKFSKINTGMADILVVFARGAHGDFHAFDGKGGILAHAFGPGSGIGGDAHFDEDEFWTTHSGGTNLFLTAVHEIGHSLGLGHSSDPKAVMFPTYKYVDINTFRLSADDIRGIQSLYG

IC50	SMILES
1.24 nM	C[C@H](NS(=O)(=O)c1ccc(-c2ncc(-c3ccc(Cl)cc3)s2)cc1)C(=O)O [Compound B-26]
5.55 nM	O=C(O)CNS(=O)(=O)c1ccc(-c2ncc(-c3ccc(Cl)cc3)s2)cc1 [Compound B-52]
0.761 nM	O=C(O)[C@@H](Cc1c[nH]c2ccccc12)NS(=O)(=O)c1ccc(-c2ncc(-c3ccc(Cl)cc3)s2)cc1 [Compound B-51]

Further lines, the compound ahead of its results:

SMILES	IC50
CC(C)[C@H](NS(=O)(=O)c1ccc(-c2ncc(-c3ccccc3)o2)cc1)C(=O)O [Compound A-22]	2.69 nM
CSCC[C@@H](NS(=O)(=O)c1ccc(-c2ncc(-c3ccc(Cl)cc3)o2)cc1)C(=O)O [Compound A-36]	2.98 nM

Target: T5, MMP-9 (Homo sapiens, UniProt P14780)
T5 construct: endogenous in cells; host or cells: HT1080 human fibrosarcoma cells, TPA-stimulated; enzyme purified from conditioned medium
Test: Assay for inhibitory activities on MMPs (fluorogenic peptide substrate), MMP-9
Assay type: biochemical
Conditions: MMP-9 from HT1080 cells, activated by TPCK-Trypsin; substrate MOCAc-Pro-Leu-Gly-Leu-A2Pr(DNP)-Ala-Arg-NH2
Description: MMP-9 was isolated and purified by procedures described in as follows: Yasunori Okada, Yukio Gonoji, Katsumi Naka, Katsuro Tomita, Isao Nakanishi, Kazushi Iwata, Kyoko Yamashita, and Taro Hayakawa: Matrix metalloproteinase 9 (92-kDa gelatinase/type IV collagenase) from HT1080 human fibrosarcoma cells. Purification and activation of the precursor and enzymic properties J. Biol. Chem., 1992, 267 21712-21719, in combination with others: 1)Yasunori Okada, Tatsuhisa Morodomi, Jan J, Enghild, ko Suzuki, Atsushi Yasui, Isao Nakanishi, Guy Salvesen and Hideaki Nagase: Matrix metalloproteinase 2 from human rheumatoid synovial fibroblasts. Purification and activation of the precursor and enzymic properties. Eur. J. Biochem. 1990, 194 721-730; 2)Robin V Ward, Rosalind M Hembry, John J Reynolds and Gillian Murphy: The purification of tissue inhibitor of metalloproteinase-2 from its 72 kDa progelatinase complex. Biochem. J. 1991 278 179-187. In detail, human fibrosarcoma ATCC HT1080 cell line was cultured to confluent in Dulbecco's Modified Medium (DMEM) containing 10% fetal-calf serum at 37° C. for 48 hours. Subsequently, the medium of confluent culture was changed to serum-free DMEM medium. To obtain MMP-9, Phorbol-12-myristate-13-acetate (TPA) must be added to this serum-free DMEM medium at a concentration of 50 ng/ml. The TPA treated medium was centrifuged at 3000 rpm for 15 min and the supernatant was concentrated to 450 ml by a Toyo-Roshi UP-20 apparatus with an ultrafiltration membrane. Then, proMMP-9 in this concentrated solution was purified by using columns of Gelatin-Sepharose and Concanavalin A-Sepharose. The pool containing proMMP-9 was dialyzed, concentrated (Toyo-Roshi UP-20) and applied to columns of Sephacryl S-200 and Green A matrix for the separation from TIMPs. The obtained proMMP-9 fraction was activated by TPCK-Trypsin (Final conc. 3 μg/501 μl React Mix.).
as §1, §2, §3, §4, §5, §6

T5 sequence (P14780 107-707 limits assumed): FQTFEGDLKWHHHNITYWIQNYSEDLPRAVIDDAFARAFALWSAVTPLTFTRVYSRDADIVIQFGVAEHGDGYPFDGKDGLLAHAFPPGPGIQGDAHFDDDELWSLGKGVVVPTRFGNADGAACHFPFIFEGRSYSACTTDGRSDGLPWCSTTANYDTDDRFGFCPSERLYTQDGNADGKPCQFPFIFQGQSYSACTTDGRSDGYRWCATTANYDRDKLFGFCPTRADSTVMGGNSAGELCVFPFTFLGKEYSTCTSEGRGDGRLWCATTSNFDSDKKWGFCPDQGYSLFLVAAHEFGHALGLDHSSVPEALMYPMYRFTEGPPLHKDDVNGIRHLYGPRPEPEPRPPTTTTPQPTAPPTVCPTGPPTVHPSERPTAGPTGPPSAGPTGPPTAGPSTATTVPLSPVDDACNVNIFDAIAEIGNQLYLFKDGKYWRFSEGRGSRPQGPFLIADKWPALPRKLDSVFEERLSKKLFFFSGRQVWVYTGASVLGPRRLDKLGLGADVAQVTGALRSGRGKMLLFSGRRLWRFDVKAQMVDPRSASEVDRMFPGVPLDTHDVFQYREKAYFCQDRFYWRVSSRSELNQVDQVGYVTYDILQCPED

IC50	SMILES
54.4 nM	C[C@H](NS(=O)(=O)c1ccc(-c2ncc(-c3ccc(Cl)cc3)s2)cc1)C(=O)O [Compound B-26]
34.7 nM	O=C(O)CNS(=O)(=O)c1ccc(-c2ncc(-c3ccc(Cl)cc3)s2)cc1 [Compound B-52]
4.24 nM	O=C(O)[C@@H](Cc1c[nH]c2ccccc12)NS(=O)(=O)c1ccc(-c2ncc(-c3ccc(Cl)cc3)s2)cc1 [Compound B-51]

Continued, compound first:

SMILES	IC50
CC(C)[C@H](NS(=O)(=O)c1ccc(-c2ncc(-c3ccccc3)o2)cc1)C(=O)O [Compound A-22]	144 nM
CSCC[C@@H](NS(=O)(=O)c1ccc(-c2ncc(-c3ccc(Cl)cc3)o2)cc1)C(=O)O [Compound A-36]	226 nM
